Test results reported in US7888329B2, “Substituted aryl piperidinylalkynyladenosines as A2AR agonists” (PGxHealth, LLC, priority 2006, dated 2011).
Like-named read-outs stand apart in the source and are kept apart here.

Experiments:
human A1 AR = target: T1, human A1 AR (Homo sapiens, UniProt P30542); experiment: Radioligand competition binding with 125I-ABA, membranes of CHO K1 cells stably expressing the receptor
T1 construct: expressed in transfected cells; membranes
T1 sequence (P30542 1-326): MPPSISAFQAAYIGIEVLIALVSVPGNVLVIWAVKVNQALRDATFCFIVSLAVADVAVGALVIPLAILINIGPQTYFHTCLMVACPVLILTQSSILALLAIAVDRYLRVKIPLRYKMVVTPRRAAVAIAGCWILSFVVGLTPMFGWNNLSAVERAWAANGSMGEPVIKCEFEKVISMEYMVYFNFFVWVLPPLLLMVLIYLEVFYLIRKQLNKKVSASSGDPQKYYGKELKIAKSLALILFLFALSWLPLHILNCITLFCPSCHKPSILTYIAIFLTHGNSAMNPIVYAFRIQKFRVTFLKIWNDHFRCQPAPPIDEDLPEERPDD

[1] = target: T2, recombinant human A2A receptors (Homo sapiens, UniProt P29274); experiment: Radioligand competition binding with 125I-APE or 125I-ZM241385, Sf9 cell membranes; conditions: 125I-APE or 125I-ZM241385, Sf9 membranes
T2 construct: expressed in transfected cells; host or cells: Sf9 insect cells infected with virus; membranes
In short: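 Membranes (5 μg for A2A; 25 μg for A1) incubated with radioligand at room temperature, 3 h for agonists or 2 h for antagonists, in HE buffer with 1 U/mL adenosine deaminase and 5 mM MgCl2, ± 50 μM GTPγS. Assays ended by filtration; nonspecific binding defined with 50 μM NECA.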

human A3 AR = target: T3, human A3 AR (Homo sapiens, UniProt P0DMS8); experiment: Radioligand competition binding with 125I-ABA, membranes of HEK 293 cells stably expressing the receptor
T3 construct: expressed in transfected cells; membranes
T3 sequence (P0DMS8 1-318): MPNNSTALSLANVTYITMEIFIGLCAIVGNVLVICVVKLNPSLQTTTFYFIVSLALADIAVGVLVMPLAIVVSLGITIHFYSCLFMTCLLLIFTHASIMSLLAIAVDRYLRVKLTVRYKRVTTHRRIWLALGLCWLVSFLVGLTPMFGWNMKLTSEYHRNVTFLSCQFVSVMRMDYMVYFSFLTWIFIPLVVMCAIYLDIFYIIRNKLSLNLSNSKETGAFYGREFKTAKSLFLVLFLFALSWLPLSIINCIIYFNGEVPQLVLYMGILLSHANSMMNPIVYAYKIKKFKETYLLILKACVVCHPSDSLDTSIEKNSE
In short: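 Triplicate binding with 25 μg membrane protein and 0.5-1 nM agonist radioligand in HE buffer with 1 U/mL adenosine deaminase and 5 mM MgCl2, ±50 μM GTPγS, 3 h at room temperature, then filtration. Nonspecific binding with 50 μM NECA; Ki from IC50 corrected for radioligand and competitor depletion.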

[2] = system: Purified human neutrophils; experiment: Luminol enhanced chemiluminescence (neutrophil oxidative activity), fMLP stimulated; format: cell-based; conditions: read-out: Functional
[3] = Ki derived from IC50, class symbols
[4] = EC50 of peak chemiluminescence, human PMN, rolipram 100 nM, fMLP, three donors, class symbols

T2 sequence (P29274 whole entry): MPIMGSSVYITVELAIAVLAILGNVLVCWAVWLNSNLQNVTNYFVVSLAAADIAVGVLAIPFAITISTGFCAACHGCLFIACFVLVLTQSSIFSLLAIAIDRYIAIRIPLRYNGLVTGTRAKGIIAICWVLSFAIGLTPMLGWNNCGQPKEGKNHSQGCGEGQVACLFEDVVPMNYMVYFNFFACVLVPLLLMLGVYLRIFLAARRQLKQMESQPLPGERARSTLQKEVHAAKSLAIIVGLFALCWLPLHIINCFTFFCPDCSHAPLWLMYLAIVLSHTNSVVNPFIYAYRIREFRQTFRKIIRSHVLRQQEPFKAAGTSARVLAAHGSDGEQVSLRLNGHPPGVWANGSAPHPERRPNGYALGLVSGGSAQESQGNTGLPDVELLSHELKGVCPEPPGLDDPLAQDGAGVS

## COc1ccccc1OC(=O)N1CCC(CC#Cc2nc(N)c3ncn([C@@H]4O[C@H](C(=O)NC5CC5)C(O)[C@@H]4O)c3n2)CC1 (stereo partly drawn) [Compound 21, N-Cyclopropyl 2-{3-[1-(2-methoxyphenyloxycarbonyl)-4-piperidinyl]-1-propyn-1-yl}adenosine-5′-uronamide]
Human A1 AR; [3]
  Ki: < 0.1 µM
[1]; class symbols
  Ki: < 0.001 µM
Human A3 AR; [3]
  Ki: < 0.1 µM
[2]; Homo sapiens, Neutrophil
  EC50: < 0.01 µM

## Nc1nc(C#CCC2CCN(C(=O)Oc3ccccc3)CC2)nc2c1ncn2[C@@H]1O[C@H](CO)[C@@H](O)[C@H]1O [Compound 4, 2-{3-[1-(Phenoxycarbonyl)piperidin-4-yl]propyn-1-yl}adenosine, reference compound]
Human A1 AR; [3]
  Ki: < 0.1 µM
[1]; class symbols
  Ki: < 0.001 µM
Human A3 AR; [3]
  Ki: < 0.01 µM
[2]; Homo sapiens, Neutrophil
  EC50: < 0.01 µM

## N=C(Oc1ccc(Cl)cc1)N1CCC(CC#Cc2nc(N)c3ncn([C@@H]4O[C@H](C(=O)NC5CC5)[C@@H](O)[C@H]4O)c3n2)CC1 [Compound 42, N-Cyclopropyl 2-{3-[1-(4-chlorophenyloxycarboxymidyl)-4-piperidinyl]-1-propyn-1-yl}adenosine-5′-uronamide]
Human A1 AR; [3]
  Ki: > 0.1 µM
[1]; class symbols
  Ki: < 0.01 µM
Human A3 AR; [3]
  Ki: > 0.1 µM
[2]; [4]
  EC50: > 0.1 µM

## Nc1nc(C#CCC2CCN(C(=O)Nc3cccc(Cl)c3)CC2)nc2c1ncn2[C@@H]1O[C@H](C(=O)NC2CC2)C(O)[C@@H]1O (stereo partly drawn) [Compound 43, N-Cyclopropyl 2-{3-[1-(3-chlorophenyloxycarboxymidyl)-4-piperidinyl]-1-propyn-1-yl}adenosine-5′-uronamide]
Human A1 AR; [3]
  Ki: < 0.1 µM
[1]; class symbols
  Ki: < 0.01 µM
Human A3 AR; [3]
  Ki: > 0.1 µM
[2]; Homo sapiens, Neutrophil
  EC50: < 0.1 µM

## Nc1nc(C#CCC2CCN(C(=O)Oc3ccc([N+](=O)[O-])cc3)CC2)nc2c1ncn2[C@@H]1O[C@H](CO)[C@@H](O)[C@H]1O [Compound 12, 2-{3-[1-((4-Nitrophenoxy)carbonyl)piperidin-4-yl]propyn-1-yl}adenosine]
Human A1 AR; [3]
  Ki: < 0.1 µM
[1]; class symbols
  Ki: < 0.001 µM
Human A3 AR; [3]
  Ki: < 0.1 µM
[2]; Homo sapiens, Neutrophil
  EC50: < 0.001 µM

## Nc1nc(C#CCC2CCN(C(=O)Oc3ccccc3)CC2)nc2c1ncn2[C@@H]1O[C@H](C(=O)NC2CC2)C(O)[C@@H]1O (stereo partly drawn) [Compound 1, N-Cyclopropyl 2-{3-[1-(phenyloxycarbonyl)-4-piperidinyl]-1-propyn-1-yl}adenosine-5′-uronamide, reference compound]
Human A1 AR; Ki derived from IC50
  Ki: 0.0347 µM
[1]; Ki derived from IC50
  Ki: 0.000563 µM
Human A3 AR; Ki derived from IC50
  Ki: 0.0341 µM
[2]; Homo sapiens, Neutrophil
  EC50: 0.00056 µM

## CCNC(=O)[C@H]1O[C@@H](n2cnc3c(N)nc(C#CCC4CCN(C(=O)Oc5ccc(N)cc5)CC4)nc32)[C@@H](O)C1O (stereo partly drawn) [Compound 34, N-Ethyl 2-{3-[1-(4-aminophenoxycarbonyl)-4-piperidinyl]-1-propyn-1-yl}adenosine-5′-uronamide]
Human A1 AR; [3]
  Ki: < 0.1 µM
[1]; class symbols
  Ki: < 0.01 µM
Human A3 AR; [3]
  Ki: < 0.1 µM
[2]; Homo sapiens, Neutrophil
  EC50: < 0.001 µM

## Nc1nc(C#CCC2CCN(C(=O)Oc3ccc([N+](=O)[O-])cc3)CC2)nc2c1ncn2[C@@H]1O[C@H](C(=O)NC2CC2)C(O)[C@@H]1O (stereo partly drawn) [Compound 10, N-Cyclopropyl 2-{3-[1-(4-nitrophenyloxycarbonyl)-4-piperidinyl]-1-propyn-1-yl}adenosine-5′-uronamide]
Human A1 AR; [3]
  Ki: < 0.1 µM
[1]; class symbols
  Ki: < 0.001 µM
Human A3 AR; [3]
  Ki: < 0.1 µM
[2]; Homo sapiens, Neutrophil
  EC50: < 0.001 µM

## Nc1nc(C#CCC2CCN(C(=O)Oc3ccc(C(=O)O)cc3)CC2)nc2c1ncn2[C@@H]1O[C@H](C(=O)NC2CC2)C(O)[C@@H]1O (stereo partly drawn) [Compound 14, N-Cyclopropyl 2-{3-[1-(4-carboxyphenoxycarbonyl)-4-piperidinyl]-1-propyn-1-yl}adenosine-5′-uronamide]
Human A1 AR; [3]
  Ki: > 0.1 µM
[1]; class symbols
  Ki: < 0.01 µM
Human A3 AR; [3]
  Ki: > 0.1 µM
[2]; Homo sapiens, Neutrophil
  EC50: < 0.1 µM

## Cc1ccc(OC(=O)N2CCC(CC#Cc3nc(N)c4ncn([C@@H]5O[C@H](C(=O)NC6CC6)[C@@H](O)[C@H]5O)c4n3)CC2)cc1C [Compound 47, N-Cyclopropyl 2-{3-[1-(3,4-dimethylphenoxycarbonyl)-4-piperidinyl]-1-propyn-1-yl}adenosine-5′-uronamide]
Human A1 AR; [3]
  Ki: < 0.1 µM
[1]; class symbols
  Ki: < 0.001 µM
Human A3 AR; [3]
  Ki: < 0.1 µM
[2]; [4]
  EC50: < 0.001 µM

## Nc1nc(C#CCC2CCN(C(=O)Oc3ccc(Cl)cc3)CC2)nc2c1ncn2[C@@H]1O[C@H](C(=O)NC2CC2)C(O)[C@@H]1O (stereo partly drawn) [Compound 17, N-Cyclopropyl 2-{3-[1-(4-chlorophenoxycarbonyl)-4-piperidinyl]-1-propyn-1-yl}adenosine-5′-uronamide]
Human A1 AR; [3]
  Ki: < 0.1 µM
[1]; class symbols
  Ki: < 0.001 µM
Human A3 AR; [3]
  Ki: < 0.1 µM
[2]; Homo sapiens, Neutrophil
  EC50: < 0.001 µM

## Nc1nc(C#CCC2CCN(C(=O)OCCOCc3ccccc3)CC2)nc2c1ncn2[C@@H]1O[C@H](CO)C(O)[C@@H]1O (stereo partly drawn) [Compound 7, 2-{3-[1-((2-Benzyloxy)ethoxycarbonyl)piperidin-4-yl]propyn-1-yl}adenosine]
Human A1 AR; [3]
  Ki: < 0.1 µM
[1]; class symbols
  Ki: < 0.001 µM
Human A3 AR; [3]
  Ki: < 0.1 µM
[2]; Homo sapiens, Neutrophil
  EC50: < 0.01 µM

## Nc1nc(C#CCC2CCN(C(=O)Oc3ccc(F)cc3)CC2)nc2c1ncn2[C@@H]1O[C@H](CO)[C@@H](O)[C@H]1O [Compound 11, 2-{3-[1-((4-Fluorophenoxy)carbonyl)piperidin-4-yl]propyn-1-yl}adenosine]
Human A1 AR; [3]
  Ki: < 0.1 µM
[1]; class symbols
  Ki: < 0.001 µM
Human A3 AR; [3]
  Ki: < 0.1 µM
[2]; Homo sapiens, Neutrophil
  EC50: < 0.01 µM

## Nc1nc(C#CCC2CCN(C(=O)Oc3cccc([N+](=O)[O-])c3)CC2)nc2c1ncn2[C@@H]1O[C@H](C(=O)NC2CC2)C(O)[C@@H]1O (stereo partly drawn) [Compound 56, N-Cyclopropyl 2-{3-[1-(3-nitrophenoxycarbonyl)-4-piperidinyl]-1-propyn-1-yl}adenosine-5′-uronamide]
Human A1 AR; [3]
  Ki: < 0.1 µM
[1]; class symbols
  Ki: < 0.001 µM
Human A3 AR; [3]
  Ki: > 0.1 µM
[2]; Homo sapiens, Neutrophil
  EC50: < 0.001 µM

## COc1ccc(OC(=O)N2CCC(CC#Cc3nc(N)c4ncn([C@@H]5O[C@H](C(=O)NC6CC6)C(O)[C@@H]5O)c4n3)CC2)cc1 (stereo partly drawn) [Compound 23]
Human A1 AR; [3]
  Ki: < 0.1 µM
[1]; class symbols
  Ki: < 0.001 µM
Human A3 AR; [3]
  Ki: < 0.1 µM
[2]; Homo sapiens, Neutrophil
  EC50: < 0.001 µM

## Nc1nc(C#CCC2CCN(C(=O)OCCOCc3ccccc3)CC2)nc2c1ncn2[C@@H]1O[C@H](C(=O)NC2CC2)C(O)[C@@H]1O (stereo partly drawn) [Compound 5, N-Cyclopropyl 2-{3-[1-(2-(benzyloxy)ethoxycarbonoyl)-4-piperidinyl]-1-propyn-1-yl}adenosine-5′-uronamide]
Human A1 AR; [3]
  Ki: < 0.1 µM
[1]; class symbols
  Ki: < 0.001 µM
Human A3 AR; [3]
  Ki: < 0.1 µM
[2]; Homo sapiens, Neutrophil
  EC50: < 0.01 µM

## Nc1nc(C#CCC2CCN(C(=O)Oc3ccccc3Cl)CC2)nc2c1ncn2[C@@H]1O[C@H](CO)[C@@H](O)[C@H]1O [Compound 35, 2-{3-[1-((2-Chloro)phenoxycarbanoyl)piperidin-4-yl]propyn-1-yl}adenosine]
Human A1 AR; [3]
  Ki: < 0.1 µM
[1]; class symbols
  Ki: < 0.001 µM
Human A3 AR; [3]
  Ki: < 0.1 µM
[2]; Homo sapiens, Neutrophil
  EC50: < 0.01 µM

## CCNC(=O)[C@H]1O[C@@H](n2cnc3c(N)nc(C#CCC4CCN(C(=O)Oc5ccc(C(=O)OC)cc5)CC4)nc32)[C@@H](O)C1O (stereo partly drawn) [Compound 25, N-Ethyl 2-{3-[1-(4-methoxycarboxyphenyloxycarbonyl)-4-piperidinyl]-1-propyn-1-yl}adenosine-5′-uronamide]
Human A1 AR; [3]
  Ki: > 0.1 µM
[1]; class symbols
  Ki: < 0.01 µM
Human A3 AR; [3]
  Ki: < 0.1 µM
[2]; Homo sapiens, Neutrophil
  EC50: < 0.01 µM

## Nc1nc(C#CCC2CCN(C(=O)Oc3ccc(F)c(F)c3)CC2)nc2c1ncn2[C@@H]1O[C@H](C(=O)NC2CC2)C(O)[C@@H]1O (stereo partly drawn) [Compound 52, N-Cyclopropyl 2-{3-[1-(3,4-fluorophenoxycarbonyl)-4-piperidinyl]-1-propyn-1-yl}adenosine-5′-uronamide]
Human A1 AR; [3]
  Ki: < 0.1 µM
[1]; class symbols
  Ki: < 0.001 µM
Human A3 AR; [3]
  Ki: < 0.1 µM
[2]; Homo sapiens, Neutrophil
  EC50: < 0.001 µM

## CCNC(=O)[C@H]1O[C@@H](n2cnc3c(N)nc(C#CCC4CCN(C(=O)OCc5ccccc5)CC4)nc32)[C@@H](O)C1O (stereo partly drawn) [Compound 32, N-Ethyl 2-{3-[1-(benzyloxycarbonyl)-4-piperidinyl]-1-propyn-1-yl}adenosine-5′-uronamide, reference compound]
Human A1 AR; [3]
  Ki: > 0.1 µM
[1]; class symbols
  Ki: < 0.001 µM
Human A3 AR; [3]
  Ki: < 0.1 µM
[2]; Homo sapiens, Neutrophil
  EC50: < 0.01 µM

## COc1ccccc1OC(=O)N1CCC(CC#Cc2nc(N)c3ncn([C@@H]4O[C@H](CO)[C@@H](O)[C@H]4O)c3n2)CC1 [Compound 36, 2-{3-[1-((2-Methoxy)phenoxycarbanoyl)piperidin-4-yl]propyn-1-yl}adenosine]
Human A1 AR; [3]
  Ki: < 0.1 µM
[1]; class symbols
  Ki: < 0.001 µM
Human A3 AR; [3]
  Ki: < 0.1 µM
[2]; Homo sapiens, Neutrophil
  EC50: < 0.01 µM
